Target: T1, Recombinant human liver GK (Homo sapiens, UniProt P35557)
T1 construct: made in house; host or cells: E. coli
T1 sequence (P35557 1-466 isoform P35557-2): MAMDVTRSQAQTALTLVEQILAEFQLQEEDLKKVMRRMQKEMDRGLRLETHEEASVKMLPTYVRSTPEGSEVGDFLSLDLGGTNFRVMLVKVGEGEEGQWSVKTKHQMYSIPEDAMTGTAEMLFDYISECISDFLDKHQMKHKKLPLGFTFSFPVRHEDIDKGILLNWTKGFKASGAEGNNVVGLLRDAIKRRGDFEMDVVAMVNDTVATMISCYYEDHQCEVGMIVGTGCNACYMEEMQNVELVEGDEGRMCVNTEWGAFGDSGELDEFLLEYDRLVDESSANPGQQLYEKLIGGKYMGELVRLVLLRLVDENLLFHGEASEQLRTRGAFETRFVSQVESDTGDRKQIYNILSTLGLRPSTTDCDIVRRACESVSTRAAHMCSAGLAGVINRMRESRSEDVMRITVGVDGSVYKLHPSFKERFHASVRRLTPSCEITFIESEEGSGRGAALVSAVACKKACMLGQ
Assay: Glucokinase activating action (G6PDH-coupled thio-NADH absorbance assay)
Format: biochemical
Details: GK activating ability, final glucose concentration 2.5 mM, 30° C.; for Emax: OD of DMSO control defined as 100%
Procedure: Glucokinase activating ability was measured using the compound of the present invention.
Measurement of an excellent glucokinase activating action of the compounds represented by the aforementioned formula (I) is able to be carried out by a method mentioned in literatures such as Diabetes, vol. 45, pages 1671 to 1677 (1996) or a method similar thereto.
Recombinant human liver GK used in this assay was expressed in E. coli as FLAG fusion protein and purified by ANTIFLAG M2 AFFINITY GEL (Sigma).
The assay was conducted at 30° C. using a flat-bottom 96-well plate. An assay buffer (25 mM Hepes Buffer: pH=7.2; 2 mM MgCl2, 1 mM ATP, 0.5 mM TNAD and 1 mM dithiothreitol) (69 μl) was dispensed and 1 μl of a solution of a compound in DMSO or DMSO (as a control) was added. After that, 20 μl of an enzyme mixture (FLAG-GK, 20 U/ml G6PDH) cooled in ice was added, then 10 μl of 25 mM glucose which is a substrate was added and the reaction was started (final glucose concentration=2.5 mM).
After starting the reaction, an increase in absorbance at 405 nm was measured for 10 minutes every 30 seconds and the compound was evaluated using the increase during the first 5 minutes. FLAG-GK was added in such a manner that an increase in absorbance after 5 minutes in the presence of 1% of DMSO became between 0.05 and 0.1.
OD value in the case of DMSO control was defined as 100% and OD values in various concentrations of the compound to be evaluated were measured. From the OD values in various concentrations, Emax (%) and EC50 (μM) were calculated and used as indexes of GK activating ability of the compound.

| SMILES | Emax | EC50 |
| --- | --- | --- |
| FCC(CF)Oc1ccc2ncnc(Nc3nc4cccnc4s3)c2c1 [Example 22, [6-(2-Fluoro-1-fluoromethyl-ethoxy)-quinazolin-4-yl]-thiazolo[5,4-b]pyridin-2-yl-amine] | 860% | 80 nM |
| c1cnc2sc(Nc3ncnc4ccc(Sc5nnc[nH]5)cc34)nc2c1 [Example 1, [6-(4H-[1,2,4]Triazol-3-ylsulfanyl)-quinazolin-4-yl]-thiazolo[5,4-b]pyridin-2-yl-amine] | 1000% | 180 nM |
| c1cnc2sc(Nc3ncnc4ccc(Sc5nnc[nH]5)nc34)nc2c1 [Example 31] |  | 90 nM |

— patent publication US7687502B2, “Substituted quinazoline or pyridopyrimidine derivative” (Banyu Pharmaceutical Co., Ltd., priority 2004, dated 2010)
